Consider 24 molecules from US9884832B2 (priority 2011, dated 2018).

The structures appear in SMILES notation. Like-named read-outs stand apart in the source and are kept apart here.

Test [1] addresses AM2 V27A (valine→alanine mutation at residue 27 in the M2 protein) (Influenza A virus, UniProt P0DOF5, V27A). The test is classed as cell-based, influenza virus A/Udorn/72.
Test [2] has as its target AM2 S31N (serine→asparagine mutation at residue 31 in the M2 protein) (Influenza A virus, UniProt P0DOF5, S31N). The test is classed as cell-based, influenza virus A/Udorn/72.

Consider `Oc1cc(OCc2ccccc2)ccc1CNC12CC3CC(CC(C3)C1)C2` [Example 57, 2-(Adamantan-1-ylaminomethyl)-5-benzyloxy-phenol], for which, in test [1] (pH 5.5), the “V27A OOcyte Inhibition at 100 uM (%)” value is “B (key: (A)=31-95%; (B)=0-30%)”. Further, the “S31N OOcyte Inhibition at 100 uM (%)” value in test [2] (pH 5.5) is “A (key: (A)=31-95%; (B)=0-30%)”.
The matching figures for `Oc1ccc(CNC23CC4CC(CC(C4)C2)C3)c(Cl)c1` [Example 58, 4-(Adamantan-1-ylaminomethyl)-3-chloro-phenol]: “A (key: (A)=31-95%; (B)=0-30%)” and “B (key: (A)=31-95%; (B)=0-30%)”.
Turning to `COc1ccc(CNC23CC4CC(CC(C4)C2)C3)c(OC)c1` [Example 59, Adamantan-1-yl-(2,4-dimethoxy-benzyl)-amine], the “V27A OOcyte Inhibition at 100 uM (%)” value in test [1] (pH 5.5) is recorded as “B (key: (A)=31-95%; (B)=0-30%)”. For the same molecule, in test [2] (pH 5.5), the “S31N OOcyte Inhibition at 100 uM (%)” value was “B (key: (A)=31-95%; (B)=0-30%)”.
Consider `CC(=O)Oc1ccc(CNC23CC4CC(CC(C4)C2)C3)c(O)c1` [Example 60, Acetic acid 4-(adamantan-1-ylaminomethyl)-3-hydroxy-phenyl ester], for which the “V27A OOcyte Inhibition at 100 uM (%)” value in test [1] (pH 5.5) is listed as “B (key: (A)=31-95%; (B)=0-30%)”. The “S31N OOcyte Inhibition at 100 uM (%)” value in test [2] (pH 5.5) is listed as “A (key: (A)=31-95%; (B)=0-30%)”.
On to `c1coc(-c2ccc(CNC34CC5CC(CC(C5)C3)C4)cn2)c1` [Example 60a, N-((6-(furan-2-yl)pyridin-3-yl)methyl)adamantan-1-amine], for which the “V27A OOcyte Inhibition at 100 uM (%)” value in test [1] was “B (key: (A)=31-95%; (B)=0-30%)”. Also, in test [2], the “S31N OOcyte Inhibition at 100 uM (%)” value was “A (key: (A)=31-95%; (B)=0-30%)”.
For `COc1ccc(CNC23CC4CC(CC(C4)C2)C3)cc1O` [Example 61, 5-(Adamantan-1-ylaminomethyl)-2-methoxy-phenol], the “V27A OOcyte Inhibition at 100 uM (%)” value in test [1] (pH 5.5) is reported as “A (key: (A)=31-95%; (B)=0-30%)”. Besides, the “S31N OOcyte Inhibition at 100 uM (%)” value in test [2] (pH 5.5) is “B (key: (A)=31-95%; (B)=0-30%)”.
For the molecule `c1csc(-c2ncc(CNC34CC5CC(CC(C5)C3)C4)cn2)c1` [Example 61a, N-((2-(thiophen-2-yl)pyrimidin-5-yl)methyl)adamantan-1-amine], the “V27A OOcyte Inhibition at 100 uM (%)” value in test [1] is given as “B (key: (A)=31-95%; (B)=0-30%)”. For the same molecule, in test [2], the “S31N OOcyte Inhibition at 100 uM (%)” value is “A (key: (A)=31-95%; (B)=0-30%)”.
Turning to `Fc1ccc(C(F)(F)F)cc1CNC12CC3CC(CC(C3)C1)C2` [Example 62, Adamantan-1-yl-(2-fluoro-5-trifluoromethyl-benzyl)-amine], in test [1] (pH 5.5), the “V27A OOcyte Inhibition at 100 uM (%)” value is on record as “B (key: (A)=31-95%; (B)=0-30%)”. Also, the “S31N OOcyte Inhibition at 100 uM (%)” value in test [2] (pH 5.5) is recorded as “B (key: (A)=31-95%; (B)=0-30%)”.
With `c1coc(-c2ncc(CNC34CC5CC(CC(C5)C3)C4)cn2)c1` [Example 62a, N-((2-(furan-2-yl)pyrimidin-5-yl)methyl)adamantan-1-amine], the “V27A OOcyte Inhibition at 100 uM (%)” value in test [1] is recorded as “B (key: (A)=31-95%; (B)=0-30%)”. The “S31N OOcyte Inhibition at 100 uM (%)” value in test [2] is recorded as “A (key: (A)=31-95%; (B)=0-30%)”.
Take `Oc1cccc(CNC23CC4CC(CC(C4)C2)C3)c1O` [Example 64, 3-(Adamantan-1-ylaminomethyl)-benzene-1,2-diol]: in test [1] (pH 5.5), the “V27A OOcyte Inhibition at 100 uM (%)” value is on record as “A (key: (A)=31-95%; (B)=0-30%)”. Further, the “S31N OOcyte Inhibition at 100 uM (%)” value in test [2] (pH 5.5) was “B (key: (A)=31-95%; (B)=0-30%)”.
`Oc1ccc(CNC23CC4CC(CC(C4)C2)C3)c(O)c1O` [Example 65, 4-(Adamantan-1-ylaminomethyl)-benzene-1,2,3-triol]: in test [1] (pH 5.5), the “V27A OOcyte Inhibition at 100 uM (%)” value is “A (key: (A)=31-95%; (B)=0-30%)”. Also, in test [2] (pH 5.5), the “S31N OOcyte Inhibition at 100 uM (%)” value is “B (key: (A)=31-95%; (B)=0-30%)”.
For `Oc1cccc2ccc(CNC34CC5CC(CC(C5)C3)C4)nc12` [Example 65a, 2-((adamantan-1-ylamino)methyl)quinolin-8-ol], the “V27A OOcyte Inhibition at 100 uM (%)” value in test [1] was “B (key: (A)=31-95%; (B)=0-30%)”. Further, the “S31N OOcyte Inhibition at 100 uM (%)” value in test [2] was “B (key: (A)=31-95%; (B)=0-30%)”.
`COc1cc(O)cc(OC)c1CNC12CC3CC(CC(C3)C1)C2` [Example 66, 4-(Adamantan-1-ylaminomethyl)-3,5-dimethoxy-phenol]: in test [1] (pH 5.5), the “V27A OOcyte Inhibition at 100 uM (%)” value is given as “B (key: (A)=31-95%; (B)=0-30%)”. In addition, in test [2] (pH 5.5), the “S31N OOcyte Inhibition at 100 uM (%)” value is “B (key: (A)=31-95%; (B)=0-30%)”.
On to `c1cc(CNC23CC4CC(CC(C4)C2)C3)co1` [Example 66a, Adamantan-1-yl-furan-3-ylmethyl-amine], for which the “V27A OOcyte Inhibition at 100 uM (%)” value in test [1] is reported as “B (key: (A)=31-95%; (B)=0-30%)”. Besides, the “S31N OOcyte Inhibition at 100 uM (%)” value in test [2] is recorded as “B (key: (A)=31-95%; (B)=0-30%)”.
Regarding `Oc1c(F)cc(CNC23CC4CC(CC(C4)C2)C3)cc1Cl` [Example 68, 4-(Adamantan-1-ylaminomethyl)-2-chloro-6-fluoro-phenol], the “V27A OOcyte Inhibition at 100 uM (%)” value in test [1] (pH 5.5) was “B (key: (A)=31-95%; (B)=0-30%)”. In test [2] (pH 5.5), the “S31N OOcyte Inhibition at 100 uM (%)” value was “B (key: (A)=31-95%; (B)=0-30%)”.
Turning to `c1cc(CNC23CC4CC(CC(C4)C2)C3)cs1` [Example 68a, Adamantan-1-yl-thiophen-3-ylmethyl-amine], the “V27A OOcyte Inhibition at 100 uM (%)” value in test [1] was “A (key: (A)=31-95%; (B)=0-30%)”. Also, in test [2], the “S31N OOcyte Inhibition at 100 uM (%)” value is reported as “B (key: (A)=31-95%; (B)=0-30%)”.
With `Oc1cc(F)c(CNC23CC4CC(CC(C4)C2)C3)c(F)c1` [Example 69, 4-(Adamantan-1-ylaminomethyl)-3,5-difluoro-phenol], in test [1] (pH 5.5), the “V27A OOcyte Inhibition at 100 uM (%)” value was “A (key: (A)=31-95%; (B)=0-30%)”. In test [2] (pH 5.5), the “S31N OOcyte Inhibition at 100 uM (%)” value is on record as “B (key: (A)=31-95%; (B)=0-30%)”.
For `c1coc(CNC23CC4CC(CC(C4)C2)C3)c1` [Example 69a, Adamantan-1-yl-furan-2-ylmethyl-amine], in test [1], the “V27A OOcyte Inhibition at 100 uM (%)” value is recorded as “B (key: (A)=31-95%; (B)=0-30%)”. Moreover, the “S31N OOcyte Inhibition at 100 uM (%)” value in test [2] is on record as “B (key: (A)=31-95%; (B)=0-30%)”.
On to `Oc1cc(O)c(CNC23CC4CC(CC(C4)C2)C3)c(O)c1` [Example 70, 2-(Adamantan-1-ylaminomethyl)-benzene-1,3,5-triol], for which the “V27A OOcyte Inhibition at 100 uM (%)” value in test [1] (pH 5.5) was “B (key: (A)=31-95%; (B)=0-30%)”. In test [2] (pH 5.5), the “S31N OOcyte Inhibition at 100 uM (%)” value is reported as “B (key: (A)=31-95%; (B)=0-30%)”.
For the molecule `c1csc(CNC23CC4CC(CC(C4)C2)C3)c1` [Example 70a, Adamantan-1-yl-thiophen-2-ylmethyl-amine], in test [1], the “V27A OOcyte Inhibition at 100 uM (%)” value was “B (key: (A)=31-95%; (B)=0-30%)”. For the same molecule, the “S31N OOcyte Inhibition at 100 uM (%)” value in test [2] is reported as “B (key: (A)=31-95%; (B)=0-30%)”.
Consider `c1csc(CNC23CC4CC(CC(C4)C2)C3)n1` [Example 71a, Adamantan-1-yl-thiazol-2-ylmethyl-amine], for which the “V27A OOcyte Inhibition at 100 uM (%)” value in test [1] was “B (key: (A)=31-95%; (B)=0-30%)”. Moreover, in test [2], the “S31N OOcyte Inhibition at 100 uM (%)” value is “A (key: (A)=31-95%; (B)=0-30%)”.
For the molecule `c1ccc(CNC23CC4CC(CC(C4)C2)C3)nc1` [Example 72, Adamantan-1-yl-pyridin-2-ylmethyl-amine], the “V27A OOcyte Inhibition at 100 uM (%)” value in test [1] (pH 5.5) was “B (key: (A)=31-95%; (B)=0-30%)”. Besides, the “S31N OOcyte Inhibition at 100 uM (%)” value in test [2] (pH 5.5) is recorded as “B (key: (A)=31-95%; (B)=0-30%)”.
With `c1cc(CNC23CC4CC(CC(C4)C2)C3)ccn1` [Example 73, Adamantan-1-yl-pyridin-4-ylmethyl-amine], the “V27A OOcyte Inhibition at 100 uM (%)” value in test [1] (pH 5.5) is recorded as “B (key: (A)=31-95%; (B)=0-30%)”. Also, the “S31N OOcyte Inhibition at 100 uM (%)” value in test [2] (pH 5.5) is reported as “B (key: (A)=31-95%; (B)=0-30%)”.
As to `COc1ccsc1CNC12CC3CC(CC(C3)C1)C2` [Example 74a, Adamantan-1-yl-(3-methoxy-thiophen-2-ylmethyl)-amine], the “V27A OOcyte Inhibition at 100 uM (%)” value in test [1] is on record as “B (key: (A)=31-95%; (B)=0-30%)”. For the same molecule, in test [2], the “S31N OOcyte Inhibition at 100 uM (%)” value was “A (key: (A)=31-95%; (B)=0-30%)”.
